Measured values as given in PubChem BioAssay (NCI).
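Results reflect a 48-hour exposure of cells in 96-well plates to compound at five concentrations. The concentration for full growth arrest is given as TGI.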

These compounds were tested on HOP-18 NSCLC (assay: inhibition of tumour cell growth, NCI panel, 48 h).
O=S1C(=c2ccc(=C3Sc4ccccc4S3)cc2)Sc2ccccc21 (stereo not drawn) was tested, and the TGI was > 100 µM.
N#CC(C(=O)CCC(=O)Nc1ccc(Cl)c(Cl)c1)c1ccccc1 (stereo not drawn) was tested, and the TGI was > 100 µM.
In the case of O=C(Nc1c(O)[nH]c(=S)[nH]c1=O)c1ccccc1, the TGI is reported as > 100 µM.
COc1cc2c(cc1O)[C@H](C)C(c1ccc(OC)c(OC)c1)O2 (stereo partly drawn) was tested, and the TGI was 20 µM.

These compounds were tested on HOP-62 NSCLC (assay: inhibition of tumour cell growth, NCI panel, 48 h).
For O=S1C(=c2ccc(=C3Sc4ccccc4S3)cc2)Sc2ccccc21 (stereo not drawn), the TGI was 31.6 µM.
In the case of N#CC(C(=O)CCC(=O)Nc1ccc(Cl)c(Cl)c1)c1ccccc1 (stereo not drawn), the TGI is reported as > 100 µM.
O=c1c2cccnc2ncn1CCN1CCCCC1 was tested, and the TGI was > 100 µM.
For O=C(Nc1c(O)[nH]c(=S)[nH]c1=O)c1ccccc1, the TGI was > 100 µM.
For COc1ccc(C2c3cc4c(cc3OC3(OC)COC(=O)C23)OCO4)c(OC)c1 (stereo not drawn), the TGI was > 100 µM.
With COc1cc2c(cc1O)[C@H](C)C(c1ccc(OC)c(OC)c1)O2 (stereo partly drawn) the TGI was > 100 µM.
CC1=C/C(=N\NC(N)=S)C(C(O)(C(F)(F)F)C(F)(F)F)C(C)(C)C1 (stereo not drawn) was tested, and the TGI was > 10 µM.

What follows are compounds tested on HOP-92 NSCLC (assay: inhibition of tumour cell growth, NCI panel, 48 h).
For O=S1C(=c2ccc(=C3Sc4ccccc4S3)cc2)Sc2ccccc21 (stereo not drawn), the TGI was > 100 µM.
In the case of N#CC(C(=O)CCC(=O)Nc1ccc(Cl)c(Cl)c1)c1ccccc1 (stereo not drawn), the TGI is reported as > 100 µM.
For O=c1c2cccnc2ncn1CCN1CCCCC1, the TGI was > 100 µM.
O=C(Nc1c(O)[nH]c(=S)[nH]c1=O)c1ccccc1 was tested, and the TGI was > 100 µM.
COc1ccc(C2c3cc4c(cc3OC3(OC)COC(=O)C23)OCO4)c(OC)c1 (stereo not drawn) gave a TGI of 97.6 µM.
COc1cc2c(cc1O)[C@H](C)C(c1ccc(OC)c(OC)c1)O2 (stereo partly drawn) gave a TGI of 23.1 µM.
CC1=C/C(=N\NC(N)=S)C(C(O)(C(F)(F)F)C(F)(F)F)C(C)(C)C1 (stereo not drawn) was tested, and the TGI was > 10 µM.

The compounds below were run on HS 578T breast (assay: inhibition of tumour cell growth, NCI panel, 48 h).
Compound COc1ccc(C2c3cc4c(cc3OC3(OC)COC(=O)C23)OCO4)c(OC)c1 (stereo not drawn) has a TGI of 27.1 µM.
With CC1=C/C(=N\NC(N)=S)C(C(O)(C(F)(F)F)C(F)(F)F)C(C)(C)C1 (stereo not drawn) the TGI was > 10 µM.

The compounds below were run on HT29 colon (assay: inhibition of tumour cell growth, NCI panel, 48 h).
In the case of O=S1C(=c2ccc(=C3Sc4ccccc4S3)cc2)Sc2ccccc21 (stereo not drawn), the TGI is reported as 49.2 µM.
For N#CC(C(=O)CCC(=O)Nc1ccc(Cl)c(Cl)c1)c1ccccc1 (stereo not drawn), the TGI was > 100 µM.
O=c1c2cccnc2ncn1CCN1CCCCC1 was tested, and the TGI was > 100 µM.
O=C(Nc1c(O)[nH]c(=S)[nH]c1=O)c1ccccc1 was tested, and the TGI was > 100 µM.
Compound COc1ccc(C2c3cc4c(cc3OC3(OC)COC(=O)C23)OCO4)c(OC)c1 (stereo not drawn) has a TGI of 15.1 µM.
COc1cc2c(cc1O)[C@H](C)C(c1ccc(OC)c(OC)c1)O2 (stereo partly drawn) was tested, and the TGI was 34.5 µM.
With CC1=C/C(=N\NC(N)=S)C(C(O)(C(F)(F)F)C(F)(F)F)C(C)(C)C1 (stereo not drawn) the TGI was > 10 µM.

Each compound was assayed on IGROV1 ovarian (assay: inhibition of tumour cell growth, NCI panel, 48 h).
With O=S1C(=c2ccc(=C3Sc4ccccc4S3)cc2)Sc2ccccc21 (stereo not drawn) the TGI was > 95.5 µM.
For N#CC(C(=O)CCC(=O)Nc1ccc(Cl)c(Cl)c1)c1ccccc1 (stereo not drawn), the TGI was > 100 µM.
In the case of O=c1c2cccnc2ncn1CCN1CCCCC1, the TGI is reported as > 100 µM.
In the case of O=C(Nc1c(O)[nH]c(=S)[nH]c1=O)c1ccccc1, the TGI is reported as > 100 µM.
In the case of COc1ccc(C2c3cc4c(cc3OC3(OC)COC(=O)C23)OCO4)c(OC)c1 (stereo not drawn), the TGI is reported as > 100 µM.
COc1cc2c(cc1O)[C@H](C)C(c1ccc(OC)c(OC)c1)O2 (stereo partly drawn) showed a TGI of 4.36 µM.
In the case of CC1=C/C(=N\NC(N)=S)C(C(O)(C(F)(F)F)C(F)(F)F)C(C)(C)C1 (stereo not drawn), the TGI is reported as > 10 µM.

What follows are compounds tested on K-562 leukemia (assay: inhibition of tumour cell growth, NCI panel, 48 h).
In the case of O=S1C(=c2ccc(=C3Sc4ccccc4S3)cc2)Sc2ccccc21 (stereo not drawn), the TGI is reported as > 100 µM.
N#CC(C(=O)CCC(=O)Nc1ccc(Cl)c(Cl)c1)c1ccccc1 (stereo not drawn) was tested, and the TGI was > 100 µM.
In the case of O=c1c2cccnc2ncn1CCN1CCCCC1, the TGI is reported as > 100 µM.
With O=C(Nc1c(O)[nH]c(=S)[nH]c1=O)c1ccccc1 the TGI was > 100 µM.
Work on COc1ccc(C2c3cc4c(cc3OC3(OC)COC(=O)C23)OCO4)c(OC)c1 (stereo not drawn) yielded a TGI of 34.4 µM.
For COc1cc2c(cc1O)[C@H](C)C(c1ccc(OC)c(OC)c1)O2 (stereo partly drawn), the TGI was 17.4 µM.
CC1=C/C(=N\NC(N)=S)C(C(O)(C(F)(F)F)C(F)(F)F)C(C)(C)C1 (stereo not drawn) was tested, and the TGI was > 10 µM.

Each compound was assayed on KM12 colon (assay: inhibition of tumour cell growth, NCI panel, 48 h).
In the case of O=S1C(=c2ccc(=C3Sc4ccccc4S3)cc2)Sc2ccccc21 (stereo not drawn), the TGI is reported as 31.4 µM.
For N#CC(C(=O)CCC(=O)Nc1ccc(Cl)c(Cl)c1)c1ccccc1 (stereo not drawn), the TGI was > 100 µM.
O=c1c2cccnc2ncn1CCN1CCCCC1 was tested, and the TGI was > 100 µM.
For O=C(Nc1c(O)[nH]c(=S)[nH]c1=O)c1ccccc1, the TGI was > 100 µM.
With COc1ccc(C2c3cc4c(cc3OC3(OC)COC(=O)C23)OCO4)c(OC)c1 (stereo not drawn) the TGI was 40 µM.
COc1cc2c(cc1O)[C@H](C)C(c1ccc(OC)c(OC)c1)O2 (stereo partly drawn) was tested, and the TGI was > 100 µM.
For CC1=C/C(=N\NC(N)=S)C(C(O)(C(F)(F)F)C(F)(F)F)C(C)(C)C1 (stereo not drawn), the TGI was > 10 µM.
